Patent US20250197864A1, “LNCRNA TRANSCRIPTS IN MELANOMAGENESIS” (The Regents of the University of California, priority 2021, published 2025)

Tested on: gene expression in D04 melanoma cells
Test: RNA-Seq differential expression analysis (DESeq2)
Type: cell-based, human
Settings: up-regulated list
Experimental: Total RNA was isolated using the RNeasy mini Kit (QIAGEN) following the manufacturer's protocol. Quality check for extracted RNA was done using 2100 Bioanalyzer (Agilent Technologies, USA) or Tapestation System (Agilent Technologies, USA). […] For samples used for identification of MAPK-responsive lncRNAs, paired-end, 101-bp sequencing was performed by Centrillion Genomic Services (Centrillion Biosciences, USA) on an Illumina HiSeq 2000. For DE gene analysis of ASO-transfected D04 samples, paired-end, 2×150-bp sequencing was performed by Genewiz (USA) on a Illumina HiSeq.
Sequence reads were aligned to the human genome (hg19) using TopHat (Version 2.0.11).
Differential expression (DE) analysis was done using DESeq2. Differentially expressed genes were defined by more than 1.5-fold changes (log 2 >0.58 or <−0.58) in expression with FDR<0.05. GO term analysis was done using DAVID Functional Annotation Clustering analysis.
To examine the biomolecular changes upon TRASH-inhibition in melanoma, D04 cells were treated with TRASH-ASOs (SEQ ID NO:15) and Control-ASOs and RNA was extracted and used for RNA-Seq. […] These GO terms consisted of genes encoding growth factors, tyrosine kinases, G protein coupled receptor subunits, and collagen subunits. Scatter plot diagram showing differential gene expression after TRASH-ASO treatment compared to Control-ASO treatment. (cut-off for significance was adjusted p-value <0.05). Data was obtained from RNA-Seq of D04 melanoma cells, treatment period was three days. (FIG. 5c)

GACTGGAGATAATTAA (gapmer, pattern not given here) [SEQ ID NO: 15, GapmeR ASO targeting AC004540.4 (TRASH), exon region of both isoforms; used for in vitro experiments]
log2FoldChange HIST3H2A (ENSG00000181218): 0.6762
log2FoldChange GPR3 (ENSG00000181773): 0.5989
log2FoldChange IBA57 (ENSG00000181873): 0.6496
log2FoldChange KCNJ14 (ENSG00000182324): 0.8416
log2FoldChange MEX3B (ENSG00000183496): 0.7229
log2FoldChange SLC35F3 (ENSG00000183780): 0.8791
log2FoldChange TXNRD2 (ENSG00000184470): 0.5869
log2FoldChange OSBP2 (ENSG00000184792): 1.106
log2FoldChange SDR42E1 (ENSG00000184860): 0.9762
log2FoldChange MAFF (ENSG00000185022): 0.6847
log2FoldChange SOCS1 (ENSG00000185338): 0.6402
log2FoldChange PMEL (ENSG00000185664): 0.9831
log2FoldChange MYBL1 (ENSG00000185697): 0.6266
log2FoldChange PCLO (ENSG00000186472): 0.6974
log2FoldChange MT1X (ENSG00000187193): 0.7581
log2FoldChange MAGEH1 (ENSG00000187601): 0.7858
log2FoldChange ZFP69B (ENSG00000187801): 0.7093
log2FoldChange ZP3 (ENSG00000188372): 0.8099
log2FoldChange C22orf34 (ENSG00000188511): 0.661
log2FoldChange GJB3 (ENSG00000188910): 1.136
log2FoldChange GJB5 (ENSG00000189280): 1.088
log2FoldChange SH2D5 (ENSG00000189410): 1.08
log2FoldChange PLEKHG4 (ENSG00000196155): 0.6321
log2FoldChange CD55 (ENSG00000196352): 0.645
log2FoldChange NUDT11 (ENSG00000196368): 0.6654
log2FoldChange AC009022.1 (ENSG00000196696): 0.6881
log2FoldChange S100A2 (ENSG00000196754): 0.5809
log2FoldChange SLC6A17 (ENSG00000197106): 1.129
log2FoldChange ZNF860 (ENSG00000197385): 0.5877
log2FoldChange VEPH1 (ENSG00000197415): 0.5803
log2FoldChange ZNF841 (ENSG00000197608): 0.6523
log2FoldChange SERPINB2 (ENSG00000197632): 0.8127
log2FoldChange PDCD1LG2 (ENSG00000197646): 1.192
log2FoldChange FAM49A (ENSG00000197872): 0.7378
log2FoldChange HRNR (ENSG00000197915): 0.6084
log2FoldChange CSF2RA (ENSG00000198223): 1.103
log2FoldChange CD247 (ENSG00000198821): 1.07
log2FoldChange HSD3BP5 (ENSG00000198857): 0.8606
log2FoldChange LINC01291 (ENSG00000204792): 0.9824
log2FoldChange KRT81 (ENSG00000205426): 0.8139
log2FoldChange TRBC2 (ENSG00000211772): 0.6815
log2FoldChange ANG (ENSG00000214274): 1.047
log2FoldChange FER1L6 (ENSG00000214814): 0.6181
log2FoldChange UBE2QL1 (ENSG00000215218): 0.6007
log2FoldChange PLXNA4 (ENSG00000221866): 1.101
log2FoldChange RNU2-63P (ENSG00000222724): 0.6055
log2FoldChange ROR1-AS1 (ENSG00000223949): 0.9732
log2FoldChange ZMIZ1-AS1 (ENSG00000224596): 0.9113
log2FoldChange AC017002.1 (ENSG00000224959): 0.6679
log2FoldChange AL354740.1 (ENSG00000225339): 0.7567
log2FoldChange CFLAR-AS1 (ENSG00000226312): 0.8124
log2FoldChange AC016831.1 (ENSG00000226380): 0.8375
log2FoldChange ERVMER34-1 (ENSG00000226887): 0.9222
log2FoldChange AC020571.1 (ENSG00000229056): 0.6243
log2FoldChange AL589880.1 (ENSG00000229939): 0.6572
log2FoldChange AL590666.2 (ENSG00000229953): 0.9636
log2FoldChange LINC01293 (ENSG00000230836): 1.066
log2FoldChange LINC00704 (ENSG00000231298): 0.7366
log2FoldChange AL603650.1 (ENSG00000232355): 1.015
log2FoldChange LINC02535 (ENSG00000234155): 1.054
log2FoldChange PINLYP (ENSG00000234465): 0.7137
log2FoldChange RPL13AP20 (ENSG00000234498): 1.162
log2FoldChange C19orf81 (ENSG00000235034): 0.9948
log2FoldChange LINC00941 (ENSG00000235884): 0.9292
log2FoldChange PNMA6A (ENSG00000235961): 0.8869
log2FoldChange AL354719.2 (ENSG00000236345): 1.16
log2FoldChange GGT8P (ENSG00000236969): 1.181
log2FoldChange AL138828.1 (ENSG00000237596): 1.06
log2FoldChange OXCT2P1 (ENSG00000237624): 1.01
log2FoldChange SPATA3-AS1 (ENSG00000238062): 1.082
log2FoldChange AC026250.1 (ENSG00000245522): 0.9507
log2FoldChange SBF2-AS1 (ENSG00000246273): 0.9574
log2FoldChange AC104066.1 (ENSG00000248375): 0.8941
log2FoldChange LINC02021 (ENSG00000249846): 1.04
log2FoldChange AC091173.1 (ENSG00000251127): 1.149
log2FoldChange SMG1P6 (ENSG00000254634): 1.045
log2FoldChange ZNF10 (ENSG00000256223): 0.6255
log2FoldChange C17orf100 (ENSG00000256806): 0.644
log2FoldChange AC073611.1 (ENSG00000257605): 0.6207
log2FoldChange LINC01579 (ENSG00000258754): 0.7555
log2FoldChange AC013652.1 (ENSG00000259345): 0.6859
log2FoldChange AC011468.1 (ENSG00000260160): 0.8721
log2FoldChange LINC02170 (ENSG00000260896): 0.7455
log2FoldChange LINC00622 (ENSG00000260941): 0.6079
log2FoldChange EPPK1 (ENSG00000261150): 0.7148
log2FoldChange LINC01029 (ENSG00000265843): 0.6081
log2FoldChange PCAT19 (ENSG00000267107): 1.193
